The values that follow come from publication PMC12152883, “Bile acids inhibit equilibrative adenosine transport to alter adenosine receptor signaling in cholestasis” (The Journal of Biological Chemistry, 2025).

Assay [1] has as its target T1, CNT2 (Homo sapiens, UniProt O43868).
T1 construct: expressed in transfected cells; host or cells: Xenopus laevis oocytes injected with in vitro-transcribed capped mRNA
T1 sequence (O43868 1-658): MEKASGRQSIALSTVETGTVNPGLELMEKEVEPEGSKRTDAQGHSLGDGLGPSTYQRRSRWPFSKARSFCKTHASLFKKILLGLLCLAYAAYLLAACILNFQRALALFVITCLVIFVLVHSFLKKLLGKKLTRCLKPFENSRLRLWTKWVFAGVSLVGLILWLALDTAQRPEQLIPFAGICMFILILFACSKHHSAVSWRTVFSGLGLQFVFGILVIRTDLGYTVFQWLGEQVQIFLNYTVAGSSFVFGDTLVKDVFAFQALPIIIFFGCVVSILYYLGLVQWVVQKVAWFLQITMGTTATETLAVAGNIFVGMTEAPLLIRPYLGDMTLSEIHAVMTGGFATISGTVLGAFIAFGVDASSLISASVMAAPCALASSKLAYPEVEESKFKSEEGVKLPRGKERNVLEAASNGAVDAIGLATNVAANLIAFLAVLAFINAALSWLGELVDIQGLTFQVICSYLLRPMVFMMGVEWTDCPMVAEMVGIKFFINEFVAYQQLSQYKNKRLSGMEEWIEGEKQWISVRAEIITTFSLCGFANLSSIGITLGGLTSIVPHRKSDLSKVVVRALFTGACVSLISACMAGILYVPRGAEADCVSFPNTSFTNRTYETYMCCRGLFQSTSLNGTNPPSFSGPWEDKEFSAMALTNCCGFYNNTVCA
Kind of assay: Radiolabeled BA transport in CNT2 mRNA-injected Xenopus oocytes. To be noted: 3H-labelled BA, Na+-containing buffer, pH 7.4. The class given is cell-based. The procedure:
We used a Xenopus oocyte-based transport assay that was previously used to examine BA transport by plasma membrane–directed ENT3 with a truncated N-terminus (that harbors lysosomal targeting motif) to experimentally verify whether ENT2 is capable of translocating BAs across the cell membrane ([24]). We tested both ENT1 and ENT2 along with CNT2, a purine nucleoside-specific concentrative transporter, to investigate their capacities to transport radiolabeled BAs. […] Transport was measured at pH 7.4, which is the closest pH to the pH of the extracellular fluid in which cells are exposed to solutes such as BAs to conduct plasma membrane transport ([29]).
The generated pOX expression constructs were linearized with either the Not1 or Sac1 restriction enzymes. The digested products were purified via phenol‒chloroform extraction. The mRNAs were synthesized using mMESSAGE mMACHINE (Ambion) transcription kits according to the manufacturer’s instructions. The mRNAs were purified via lithium precipitation. Oocytes were procured from Ecocyte. Prior to experiments, procured oocytes were defolliculated by treating with collagenase A-OR II solution followed by washing with Barth’s solution. Following microscopic verification, selected oocytes were incubated to recover overnight at 25 °C in a shaker incubator. Fifty nanoliters (400–800 ng/μl) of equal amounts of mRNAs were injected into defolliculated oocytes the next day. Expression of plasmids was analyzed after RNA isolation from oocyte extracts and conducting qPCR analysis with gene-specific primers as described earlier ([30]). The injected oocytes were incubated at 15 °C for 24 h before transport assays were performed. The uptake of radiolabeled substrates was measured after a 30 min incubation in transport buffer (100 mM NaCl, 2 mM KCl, 1 mM CaCl2, 1 mM MgCl2, and 10 mM Hepes, pH 7.4) at room temperature. […] Individual oocytes were shaken overnight in 10% SDS for complete dissolution, and then the radioactivity was quantified with a Beckman liquid scintillation counter. […]

Assay [2] addresses T2, ENT2 (Homo sapiens, UniProt Q14542).
T2 sequence (Q14542 1-456): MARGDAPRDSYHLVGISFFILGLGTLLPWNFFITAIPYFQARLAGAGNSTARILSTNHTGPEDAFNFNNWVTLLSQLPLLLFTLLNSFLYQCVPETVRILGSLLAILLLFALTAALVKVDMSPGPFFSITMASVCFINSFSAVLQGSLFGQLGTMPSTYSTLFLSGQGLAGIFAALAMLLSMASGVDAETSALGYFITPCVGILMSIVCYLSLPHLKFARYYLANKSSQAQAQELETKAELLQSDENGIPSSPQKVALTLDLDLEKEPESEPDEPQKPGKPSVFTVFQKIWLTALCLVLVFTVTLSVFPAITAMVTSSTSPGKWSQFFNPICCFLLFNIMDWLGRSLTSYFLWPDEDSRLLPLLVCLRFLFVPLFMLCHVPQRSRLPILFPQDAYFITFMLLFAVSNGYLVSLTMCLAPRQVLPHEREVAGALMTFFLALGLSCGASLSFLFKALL
Kind of assay: BA transport by ENT2-injected oocytes quantified by LC-MS/MS. The class given is cell-based. Conditions: pH 7.4, p < 0.001 compared with water-injected oocytes. More on the design: expressed in transfected cells; host or cells: Xenopus laevis oocytes injected with in vitro-transcribed capped mRNA from pOX-hENT2. The procedure:
Therefore, we studied several different BAs and used a liquid chromatography–tandem mass spectrometry (LC‒MS/MS) method to quantify the transport activity of H2O-injected and ENT2 mRNA-injected oocytes using TCA as a positive control. […] We subsequently tested the ability of ENT2 to transport BAs at different physiological pH values ranging from pH 5.5 to pH 7.4 by varying the pH of the transport buffers in which the assay was conducted.
The mass spectrometric validation of the transport of all metabolites was performed with oocytes using a previously reported method ([24]). […] After an incubation at 4 °C for 24 h, the samples were centrifuged at 20,000g for 10 min, and the supernatants were collected. The samples (10 μl) were injected into a Thermo Scientific Vanquish UPLC system interfaced with a Thermo Scientific TSQ Quantiva triple-stage quadrupole mass spectrometer equipped with an H-ESI ion source. MS detection was conducted in negative ionization mode, and the transitions monitored for each metabolite are listed in Sup. Table S2. The operational mass spectrometric parameters included a capillary voltage of 4.5 kV; sheath gas of 35 arbitrary units; auxiliary gas of 10 arbitrary units; sweep gas of two arbitrary units; ion transfer tube temperature of 350 °C; vaporizer temperature of 450 °C; dwell time of 50 ms per transition; collision energy of 5 V; and collision-induced dissociation gas of 1.5 mTorr. Chromatographic separation was performed on a Kinetex […] (100 × 2.1 mm; 1.7 μm particle size) from Phenomenex. The mobile phase consisted of solvent A: water (0.1% formic acid) and solvent B: acetonitrile (0.1% formic acid). The flow rate was set at 0.3 ml/min, and the autosampler was maintained at 4 °C throughout the analysis.

In the case of `C[C@H](CCC(=O)O)[C@H]1CC[C@H]2[C@@H]3CC[C@@H]4C[C@H](O)CC[C@]4(C)[C@H]3C[C@H](O)[C@]12C` [DCA, deoxycholic acid], the “transport of BA by CNT2” value in assay [1] is given as “incapable of transporting”.

For the compound `C[C@H](CCC(=O)NCCS(=O)(=O)O)[C@H]1CC[C@H]2[C@@H]3[C@H](O)C[C@@H]4C[C@H](O)CC[C@]4(C)[C@H]3C[C@H](O)[C@]12C` [TCA, taurocholic acid], the “transport of BA by CNT2” value in assay [1] was “incapable of transporting”. Moreover, the “transport by ENT2 mRNA-injected vs water-injected oocytes (LC-MS/MS)” value in assay [2] was “significant transport”. For the compound `C[C@H](CCC(=O)O)[C@H]1CC[C@H]2[C@@H]3[C@H](O)C[C@@H]4C[C@H](O)CC[C@]4(C)[C@H]3C[C@H](O)[C@]12C` [CA, cholic acid], the “transport of BA by CNT2” value in assay [1] is reported as “incapable of transporting”. In assay [2], the “transport by ENT2 mRNA-injected vs water-injected oocytes (LC-MS/MS)” value is on record as “significant transport”.
